Where two headings read alike, the source gives them in different places.
Assays:
[1] = target: T1, PARN (Homo sapiens, UniProt O95453); test: Fluorescence-based biochemical assay of PARN ribonuclease activity; details: for IC50: fluorescence-based biochemical assay, ± standard error of the mean (n = 3); for inhibition of PARN ribonuclease activity (in words): Fig. 3, compounds used at 10 μM (5h–k)
T1 sequence (O95453 1-639): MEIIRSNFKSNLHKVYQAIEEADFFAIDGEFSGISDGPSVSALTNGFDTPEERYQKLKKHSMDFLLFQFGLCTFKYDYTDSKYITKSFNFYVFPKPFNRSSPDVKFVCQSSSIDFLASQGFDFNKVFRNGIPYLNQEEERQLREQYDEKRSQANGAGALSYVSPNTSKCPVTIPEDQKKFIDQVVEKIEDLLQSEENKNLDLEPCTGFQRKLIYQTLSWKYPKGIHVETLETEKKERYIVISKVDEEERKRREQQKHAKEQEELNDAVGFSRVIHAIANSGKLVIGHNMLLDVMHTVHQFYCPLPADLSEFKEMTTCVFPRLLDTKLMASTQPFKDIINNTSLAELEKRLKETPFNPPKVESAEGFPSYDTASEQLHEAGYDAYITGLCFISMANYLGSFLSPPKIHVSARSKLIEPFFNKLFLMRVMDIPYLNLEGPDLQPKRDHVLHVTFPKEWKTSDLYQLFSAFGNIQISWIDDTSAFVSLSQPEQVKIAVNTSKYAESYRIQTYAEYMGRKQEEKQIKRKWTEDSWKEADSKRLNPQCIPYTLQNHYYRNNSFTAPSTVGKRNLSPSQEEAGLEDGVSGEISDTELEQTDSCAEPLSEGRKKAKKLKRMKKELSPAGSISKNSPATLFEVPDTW
Method: The selectivity of the compounds was determined by comparing their activities against Caf1 and two related deadenylase enzymes: the PARN ribonuclease, which has a conserved nuclease domain similar to that of Caf1, and Ccr4, whose biological function is related to Caf1, but which contains a dissimilar EEP-type nuclease domain.[22]
Error bars represent the standard deviation.

[2] = target: Caf1 (Homo sapiens, UniProt Q9UIV1); test: Fluorescence-based biochemical assay of Caf1 ribonuclease activity
Method: Following LC–MS and solubility analysis, five compounds were evaluated for their ability to inhibit Caf1 activity using a fluorescence-based biochemical assay (Fig. 1B).[22]
Reactions contained no enzyme (control), complete reactions (enzyme) or complete reactions in the presence of the indicated compound. […] Error bars represent the standard deviation.

[3] = read-out: IC50 (Caf1), fluorescence-based biochemical assay, ± standard error of the mean (n = 3)

Sequence of Caf1 (Q9UIV1 whole entry): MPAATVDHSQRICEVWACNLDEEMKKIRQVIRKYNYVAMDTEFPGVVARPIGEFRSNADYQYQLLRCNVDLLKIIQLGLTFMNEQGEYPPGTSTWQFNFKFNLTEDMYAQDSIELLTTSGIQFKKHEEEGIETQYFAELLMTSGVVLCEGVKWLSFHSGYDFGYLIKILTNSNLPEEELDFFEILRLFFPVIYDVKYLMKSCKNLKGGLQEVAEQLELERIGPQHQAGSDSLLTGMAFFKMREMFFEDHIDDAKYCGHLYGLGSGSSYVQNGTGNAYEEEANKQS

SMILES | IC50 [1] [µM] | IC50 [2, 3] [µM] | also measured
O=c1[nH]c2ncn(Cc3ccccc3)c2c(=O)n1O [Compound 5a] | 84.1 ± 6.7 | 10.4 ± 0.4 | IC50 [2]: 22.8 ± 0.1 µM
O=c1[nH]c2ncn(Cc3ccccn3)c2c(=O)n1O [Compound 5c] | 119 ± 25 | 10.6 ± 2.7 | –
O=c1[nH]c2ncn(Cc3cccnc3)c2c(=O)n1O [Compound 5d] | 125 ± 32 | 6.6 ± 0.7 | –
O=c1[nH]c2ncn(Cc3ccncc3)c2c(=O)n1O [Compound 5e] | 245 ± 20 | – | –
O=c1[nH]c2ncn(CCCc3ccccc3)c2c(=O)n1O [Compound 5f] | – | 13.3 ± 2.3 | –
CCCCOCCCn1cnc2[nH]c(=O)n(O)c(=O)c21 [Compound 5g] | – | 20.6 ± 5.8 | –
O=c1[nH]c2ncn(CCc3cccs3)c2c(=O)n1O [Compound 5h] | – | 3.6 ± 1.1 | inhibition of PARN ribonuclease activity (in words) [1]: also inhibited the related deadenylase PARN
O=c1[nH]c2ncn(CCc3ccccc3)c2c(=O)n1O [Compound 5j] | – | – | inhibition of PARN ribonuclease activity (in words) [1]: also inhibited the related deadenylase PARN
O=c1[nH]c2ncn(CCc3ccccn3)c2c(=O)n1O [Compound 5k] | – | 4 ± 1.1 | inhibition of PARN ribonuclease activity (in words) [1]: also inhibited the related deadenylase PARN
Cn1c(=O)n(O)c(=O)c2c1ncn2CCc1ccccc1 [Compound 8a] | – | 9.3 ± 1.7 | –
O=c1c2c(ncn2CCc2ccccc2)n(Cc2ccccc2)c(=O)n1O [Compound 8i] | – | 14.5 ± 0.9 | –
CN(C)CCCn1c(=O)n(O)c(=O)c2c1ncn2CCc1ccccc1 [Compound 8j] | 23.9 ± 3.7 | 0.59 ± 0.11 | activity versus PARN (in words) ([1]; Table 2, Fig. 3, 3 μM): displayed reduced activity versus PARN; increased activity against Caf1 compared to compound 5a [2]: > 10 fold; potency against Caf1 relative to all previously identified compounds ([2]; compared with the inhibitors of ref 22): > 20 fold
O=c1c2c(ncn2CCc2ccccc2)n(CCN2CCOCC2)c(=O)n1O [Compound 8k] | – | 8.7 ± 0.3 | –
O=c1[nH]c2cnn(-c3ccccc3)c2c(=O)n1O [NSC-104148] | – | 38.6 ± 2.79 | –
O=c1[nH]c2ncsc2c(=O)n1O [NSC-116567] | – | 28.7 ± 3.8 | –
O=c1[nH]c2cccnc2c(=O)n1O [NSC-193557] | – | 525 ± 13.9 | –

Source: publication PMC4577731, “Discovery, synthesis and biochemical profiling of purine-2,6-dione derivatives as inhibitors of the human poly(A)-selective ribonuclease Caf1” (Bioorganic & Medicinal Chemistry Letters, 2015)
